In brackets after ≈: the same amount, converted by molar mass.
Assays:
Assay in all cases: In vitro antibacterial activity, microtitration dilution method (MIC)
Type in all cases: cell-based
[1] = system: E. coli Vogel; details: Escherichia coli, read-out: Minimal Inhibitory Concentration MIC
From the text: (§1) The compounds of the invention display antibacterial activity when tested by the microtitration dilution method as described in Heifetz, et al, Antimicr. Agents & Chemoth. 6:124 (1974), which is incorporated herein by reference.
(§2) By use of the above reference method, the following minimum inhibitory concentration value (MICs in μg/mL) shown in Table I were obtained for representative compounds of the invention.

[2] = system: Enter. cloac.; details: read-out: Minimal Inhibitory Concentration MIC
From the text: as §1, §2

[3] = system: Kleb. pneu.; details: read-out: Minimal Inhibitory Concentration MIC
From the text: as §1, §2

[4] = system: Prot. rettg.; details: read-out: Minimal Inhibitory Concentration MIC
From the text: as §1, §2

[5] = system: Pseu. aeru.; details: read-out: Minimal Inhibitory Concentration MIC
From the text: as §1, §2

[6] = system: S. aureus R; details: Staphylococcus aureus, read-out: Minimal Inhibitory Concentration MIC
From the text: as §1, §2

[7] = system: S. aureus S; details: Staphylococcus aureus, read-out: Minimal Inhibitory Concentration MIC
From the text: as §1, §2

[8] = system: Streptococcus faec.; details: read-out: Minimal Inhibitory Concentration MIC
From the text: as §1, §2

[9] = system: Streptococcus pneum.; details: read-out: Minimal Inhibitory Concentration MIC
From the text: as §1, §2

[10] = system: Streptococcus pyog.; details: read-out: Minimal Inhibitory Concentration MIC
From the text: as §1, §2

| Compound | MIC [1] [µg/mL] | MIC [2] [µg/mL] | MIC [3] [µg/mL] | MIC [4] [µg/mL] | MIC [5] [µg/mL] | MIC [6] [µg/mL] | MIC [7] [µg/mL] | MIC [8] [µg/mL] | MIC [9] [µg/mL] | MIC [10] [µg/mL] |
| --- | --- | --- | --- | --- | --- | --- | --- | --- | --- | --- |
| NCc1ccccc1C1CCN(c2nc3c(cc2F)c(=O)c(C(=O)O)cn3C2CC2)C1 (stereo not shown) [Example 1, 7-[3-[2-(Aminomethyl)phenyl]-1-pyrrolidinyl]-1-cyclopropyl-6-fluoro-1,4-dihydro-4-oxo-1,8-naphthyridine-3-carboxylic acid] | 0.1 (≈ 0.237 µM) | 0.1 (≈ 0.237 µM) | 0.2 (≈ 0.473 µM) | 0.4 (≈ 0.947 µM) | 1.6 (≈ 3.79 µM) | 0.05 (≈ 0.118 µM) | 0.013 (≈ 0.0308 µM) | 0.05 (≈ 0.118 µM) | 0.025 (≈ 0.0592 µM) | 0.025 (≈ 0.0592 µM) |
| NCc1cccc(C2CCN(c3nc4c(cc3F)c(=O)c(C(=O)O)cn4C3CC3)C2)c1 (stereo not shown) [Example 6, 7-[3-[3-(Aminomethyl)phenyl]-1-pyrrolidinyl]-1-cyclopropyl-6-fluoro-1,4-dihydro-4-oxo-1,8-naphthyridine-3-carboxylic acid] | 0.05 (≈ 0.118 µM) | 0.05 (≈ 0.118 µM) | 0.05 (≈ 0.118 µM) | 0.1 (≈ 0.237 µM) | 0.8 (≈ 1.89 µM) | 0.013 (≈ 0.0308 µM) | 0.006 (≈ 0.0142 µM) | 0.025 (≈ 0.0592 µM) | 0.006 (≈ 0.0142 µM) | 0.006 (≈ 0.0142 µM) |
| NCc1cccc(C2CCN(c3cc4c(cc3F)c(=O)c(C(=O)O)cn4C3CC3)C2)c1 (stereo not shown) [Example 7, 7-[3-[3-(Aminomethyl)phenyl]-1-pyrrolidinyl]-1-cyclopropyl-6-fluoro-1,4-dihydro-4-oxo-3-quinolinecarboxylic acid] | 0.05 (≈ 0.119 µM) | 0.05 (≈ 0.119 µM) | 0.1 (≈ 0.237 µM) | 0.1 (≈ 0.237 µM) | 0.8 (≈ 1.9 µM) | 0.025 (≈ 0.0593 µM) | 0.006 (≈ 0.0142 µM) | 0.013 (≈ 0.0308 µM) | ≤ 0.003 | ≤ 0.003 |
| NCc1cccc(C2CCN(c3c(F)c(N)c4c(=O)c(C(=O)O)cn(C5CC5)c4c3F)C2)c1 (stereo not shown) [Example 8, 5-Amino-7-[3-[3-(aminomethyl)phenyl]-1-pyrrolidinyl]-1-cyclopropyl-6,8-difluoro-1,4-dihydro-4-oxo-3-quinolinecarboxylic acid] | 0.05 (≈ 0.11 µM) | 0.05 (≈ 0.11 µM) | 0.1 (≈ 0.22 µM) | 0.2 (≈ 0.44 µM) | 0.8 (≈ 1.76 µM) | 0.013 (≈ 0.0286 µM) | ≤ 0.003 | 0.013 (≈ 0.0286 µM) | 0.006 (≈ 0.0132 µM) | 0.013 (≈ 0.0286 µM) |
| NCc1ccc(C2CCN(c3c(F)c(N)c4c(=O)c(C(=O)O)cn(C5CC5)c4c3F)C2)cc1 (stereo not shown) [Example 11, 5-Amino-7-[3-[4-(aminomethyl)phenyl]-1-pyrrolidinyl]-1-cyclopropyl-6,8-difluoro-1,4-dihydro-4-oxo-3-quinolinecarboxylic acid] | 0.1 (≈ 0.22 µM) | 0.1 (≈ 0.22 µM) | 0.2 (≈ 0.44 µM) | 0.2 (≈ 0.44 µM) | 0.8 (≈ 1.76 µM) | 0.013 (≈ 0.0286 µM) | ≤ 0.003 | 0.013 (≈ 0.0286 µM) | 0.013 (≈ 0.0286 µM) | 0.013 (≈ 0.0286 µM) |
| CNCc1cccc(C2CCN(c3c(F)c(N)c4c(=O)c(C(=O)O)cn(C5CC5)c4c3F)C2)c1 (stereo not shown) [Example 13, 5-Amino-1-cyclopropyl-6,8-difluoro-1,4-dihydro-7-[3-[3-[(methylamino)methyl]phenyl]-1-pyrrolidinyl]-4-oxo-3-quinolinecarboxvlic acid] | 0.2 (≈ 0.427 µM) | 0.2 (≈ 0.427 µM) | 0.4 (≈ 0.854 µM) | 0.8 (≈ 1.71 µM) | 1.6 (≈ 3.42 µM) | 0.05 (≈ 0.107 µM) | 0.013 (≈ 0.0277 µM) | 0.05 (≈ 0.107 µM) | 0.05 (≈ 0.107 µM) | 0.05 (≈ 0.107 µM) |
| CNCc1ccc(C2CCN(c3cc4c(cc3F)c(=O)c(C(=O)O)cn4C3CC3)C2)cc1 (stereo not shown) [Example 14, 1-Cyclopropyl-6-fluoro-1,4-dihydro-7-[3-[4-[(methylamino)methyl]phenyl]-1-pyrrolidinyl]-4-oxo-3-quinolinecarboxylic acid] | 0.2 (≈ 0.459 µM) | 0.2 (≈ 0.459 µM) | 0.4 (≈ 0.918 µM) | 0.4 (≈ 0.918 µM) | 1.6 (≈ 3.67 µM) | 0.013 (≈ 0.0299 µM) | 0.006 (≈ 0.0138 µM) | 0.025 (≈ 0.0574 µM) | 0.013 (≈ 0.0299 µM) | 0.013 (≈ 0.0299 µM) |
| CNCc1ccc(C2CCN(c3c(F)c(N)c4c(=O)c(C(=O)O)cn(C5CC5)c4c3F)C2)cc1 (stereo not shown) [Example 15, 5-Amino-1-cyclopropyl-6,8-difluoro-1,4-dihydro-7-[3-[4-[(methylamino)methyl]phenyl]-1-pyrrolidinyl]-4-oxo-3-quinolinecarboxylic acid] | 0.2 (≈ 0.427 µM) | 0.2 (≈ 0.427 µM) | 0.4 (≈ 0.854 µM) | 0.4 (≈ 0.854 µM) | 1.6 (≈ 3.42 µM) | 0.013 (≈ 0.0277 µM) | 0.006 (≈ 0.0128 µM) | 0.025 (≈ 0.0534 µM) | 0.013 (≈ 0.0277 µM) | 0.013 (≈ 0.0277 µM) |
| O=C(O)c1cn(C2CC2)c2cc(N3CCC(c4ccccn4)C3)c(F)cc2c1=O (stereo not shown) [Example 17, 1-Cyclopropyl-6-fluoro-1,4-dihydro-4-oxo-7-[3-(2-pyridinyl)-1-pyrrolidinyl]-3-quinolinecarboxylic acid] | 0.1 (≈ 0.254 µM) | 0.1 (≈ 0.254 µM) | 0.2 (≈ 0.508 µM) | 0.2 (≈ 0.508 µM) | 0.8 (≈ 2.03 µM) | 0.006 (≈ 0.0153 µM) | ≤ 0.003 | 0.05 (≈ 0.127 µM) | 0.05 (≈ 0.127 µM) | 0.05 (≈ 0.127 µM) |
| O=C(O)c1cn(C2CC2)c2cc(N3CCC(c4cccnc4)C3)c(F)cc2c1=O (stereo not shown) [Example 21, 1-Cyclopropyl-6-fluoro-1,4-dihydro-4-oxo-7-[3-(3-pyridinyl)-1-pyrrolidinyl]-3-quinolinecarboxylic acid] | 0.1 (≈ 0.254 µM) | 0.1 (≈ 0.254 µM) | 0.2 (≈ 0.508 µM) | 0.2 (≈ 0.508 µM) | 0.8 (≈ 2.03 µM) | 0.006 (≈ 0.0153 µM) | ≤ 0.003 | 0.025 (≈ 0.0635 µM) | 0.025 (≈ 0.0635 µM) | 0.025 (≈ 0.0635 µM) |
| Nc1c(F)c(N2CCC(c3cccnc3)C2)c(F)c2c1c(=O)c(C(=O)O)cn2C1CC1 (stereo not shown) [Example 22, 5-Amino-1-cyclopropyl-6,8-difluoro-1,4-dihydro-4-oxo-7-[3-(3-pyridinyl)-1-pyrrolidinyl]-3-quinoline-carboxylic acid] | 0.1 (≈ 0.235 µM) | 0.1 (≈ 0.235 µM) | 0.2 (≈ 0.469 µM) | 0.2 (≈ 0.469 µM) | 1.6 (≈ 3.75 µM) | 0.006 (≈ 0.0141 µM) | ≤ 0.003 | 0.05 (≈ 0.117 µM) | 0.025 (≈ 0.0586 µM) | 0.025 (≈ 0.0586 µM) |
| Nc1c(F)c(N2CCC(c3ccncc3)C2)c(F)c2c1c(=O)c(C(=O)O)cn2C1CC1 (stereo not shown) [Example 25, 5-Amino-1-cyclopropyl-6,8-difluoro-1,4-dihydro-4-oxo-7-[3-(4-pyridinyl)-1-pyrrolidinyl]-3-quinoline-carboxylic acid] | 0.2 (≈ 0.469 µM) | 0.2 (≈ 0.469 µM) | 0.4 (≈ 0.938 µM) | 0.4 (≈ 0.938 µM) | 3.1 (≈ 7.27 µM) | 0.006 (≈ 0.0141 µM) | ≤ 0.003 | 0.05 (≈ 0.117 µM) | 0.05 (≈ 0.117 µM) | 0.05 (≈ 0.117 µM) |
| NCc1cccnc1C1CCN(c2c(F)c(N)c3c(=O)c(C(=O)O)cn(C4CC4)c3c2F)C1 (stereo not shown) [Example 29, 5-Amino-7-[3-[3-(aminomethyl)-2-pyridinyl]-1-pyrrolidinyl]-1-cyclopropyl-6,8-difluoro-1,4-dihydro-4-oxo-3-quinolinecarboxylic acid] | 0.05 (≈ 0.11 µM) | 0.05 (≈ 0.11 µM) | 0.1 (≈ 0.22 µM) | 0.2 (≈ 0.439 µM) | 1.6 (≈ 3.51 µM) | 0.025 (≈ 0.0549 µM) | 0.013 (≈ 0.0285 µM) | 0.025 (≈ 0.0549 µM) | 0.025 (≈ 0.0549 µM) | 0.025 (≈ 0.0549 µM) |
